The source of these data is patent publication US11530196B2, “Pyrimidine compound acting on EGFR and ERBB2” (CHINA RESOURCES PHARMACEUTICAL HOLDINGS COMPANY LIMITED, priority 2019, dated 2022).

Data set [1] concerns the target Ba/F3 EGFR-H773_V774insNPH (Homo sapiens, UniProt P00533, DUP771-773, cells depend on it). As to the kind of experiment: Anti-proliferation against Ba/F3 exon 20 insertion mutant cells (NPH). The conditions noted are these: CTG, 72 hours, read-out: Mutant cells IC50 (anti-proliferation). Format: cell-based, mouse. From the text: RPMI1640 medium was purchased from Hyclone, FBS fetal bovine serum was purchased from GBICO, and trypsin-EDTA were both purchased from Giboco. DPBS was purchased from Corning, penicillin/streptomycin solution was purchased from Hyclone, and Cell-Titer Glo reagent was purchased from Promega (Cat. No. G7572). Ba/F3 EGFR-D770_N771insSVD, Ba/F3 EGFR-H773_V774insNPH, Ba/F3 EGFR-V769_D770insASV, BaF3 ERBB2 A775_G776 ins YVMA, the cell lines were constructed by Beijing Kang Yuan Bochuang Biotechnology Co., Ltd. Plate reading instrument: Envision (PerkinElmer).
Cells in logarithmic growth phase were harvested and cell counts were performed using a […]. Cell viability was detected by the Taipan Blue rejection assay. The cell concentration was adjusted; the cell suspension was added to a 96-well plate separately. Cells in 96-well plates were incubated overnight at 37° C., 5% CO2, and 95% humidity. […] The cell plate was placed at room temperature to stabilize the cold light signal, and the cold light values were read. The data were analyzed using GraphPad Prism 7.0 software, and a nonlinear S-curve regression was used to fit the data to derive the dose-effect curve from which the IC50 values were calculated. […]

A short description of data set [2]: Compound stability test in plasma (rat). It is filed as in vitro ADME, SD rat. The procedure:
In this study, mouse, SD rat, Beagle, cynomolgus monkey and human plasma were used as materials to investigate the stability of the tested compounds in the plasma of the above five species. Propantheline, Enalapril, Bisacodyl and Procaine were used as control compounds.
The experimental conditions for the test compounds were as follows: • test concentration: 2 μM (DMSO ≤0.5%); • incubation times: 0, 10, 30, 60 and 120 minutes; • frozen plasma (from multiple species) was used in the test system; • incubation conditions: 37° C.
The mixed frozen plasma was thawed in a 37° C. water bath prior to the experiment. Plasma was centrifuged at 4000 rpm for 5 minutes and cleared if there was a clot. The pH will be adjusted to 7.4±0.1 if required.
The intermediate solution of 1 mM compound and positive control was prepared by diluting 10 mM stock solution with 90 μL of dimethyl sulfoxide. 100 μM solution was prepared by diluting 20 μL of intermediate solution (1 mM) with 180 μL of 45% methanol/water.
2 μL of 100 μM solution was added to 98 μL of blank plasma to achieve a final concentration of 2 μM (in duplicate) of the sample, and the sample was incubated in a 37° C. water bath. At each time point (0, 10, 30, 60 and 120 min), 400 μL of termination solution (200 ng/mL toluenesulfonylurea and 200 ng/mL labetalol, 50% ACN/MeOH) was added to precipitate the proteins and mixed thoroughly. […]

The test system of data set [3] is HuPrime lung cancer LU0387 subcutaneous xenograft tumor. As to the kind of experiment: HuPrime lung cancer LU0387 subcutaneous xenograft BALB/c nude mouse model. It is filed as in vivo, BALB/c Nude mice. The protocol:
The antitumor effects of the test drug in HuPrime® lung cancer LU0387 subcutaneous xenograft BALB/C nude mouse were evaluated.
BALB/c Nude mice, female, 7-8 weeks, HuPrime® lung cancer xenograft model LU0387 tumor-bearing mouse tumor tissue.
BALB/c nude mice were subcutaneously inoculated with HuPrime® model LU0387 tumor blocks to establish a human lung cancer subcutaneous transplantation tumor model. The test was divided into a solvent control group and a test drug group. The drug was administered by gavage, once daily for 21 days. Efficacy was evaluated based on relative tumor inhibition rate (TGI), and the safety was evaluated based on animal weight change and mortality.
Tumor diameters were measured with vernier calipers twice a week. The calculation formula of tumor volume was: V=0.5a×b^2, wherein a and b represented the long and short diameters of the tumor, respectively.
The antitumor efficacy of the compounds was evaluated by TGI (%) or relative tumor proliferation rate T/C (%).
Relative tumor proliferation rate T/C (%)=TRTV/CRTV×100% (TRTV: mean RTV in the treatment group; CRTV: mean RTV in the solvent control group).
The relative tumor volume (RTV) was calculated according to the results of tumor measurement. The calculation formula was RTV=Vt/V0, wherein V0 was the tumor volume measured at the time of group administration (i.e., D0), and Vt was the tumor volume corresponding to a certain measurement. TRTV and CRTV were taken on the same day.
TGI (%), reflecting the tumor growth inhibition rate. TGI (%)=[(1−(average tumor volume at the end of administration of a treatment group−average tumor volume at the beginning of administration of this treatment group))/(average tumor volume at the end of treatment in the solvent control group−average tumor volume at the beginning of treatment of the solvent control group)]×100%.

By T/C is commonly meant the ratio of treated to control.

Molecules are shown by their SMILES.

Ba/F3 EGFR-H773_V774insNPH, sequence (P00533 with tags, fused parts or gaps DUP771-773): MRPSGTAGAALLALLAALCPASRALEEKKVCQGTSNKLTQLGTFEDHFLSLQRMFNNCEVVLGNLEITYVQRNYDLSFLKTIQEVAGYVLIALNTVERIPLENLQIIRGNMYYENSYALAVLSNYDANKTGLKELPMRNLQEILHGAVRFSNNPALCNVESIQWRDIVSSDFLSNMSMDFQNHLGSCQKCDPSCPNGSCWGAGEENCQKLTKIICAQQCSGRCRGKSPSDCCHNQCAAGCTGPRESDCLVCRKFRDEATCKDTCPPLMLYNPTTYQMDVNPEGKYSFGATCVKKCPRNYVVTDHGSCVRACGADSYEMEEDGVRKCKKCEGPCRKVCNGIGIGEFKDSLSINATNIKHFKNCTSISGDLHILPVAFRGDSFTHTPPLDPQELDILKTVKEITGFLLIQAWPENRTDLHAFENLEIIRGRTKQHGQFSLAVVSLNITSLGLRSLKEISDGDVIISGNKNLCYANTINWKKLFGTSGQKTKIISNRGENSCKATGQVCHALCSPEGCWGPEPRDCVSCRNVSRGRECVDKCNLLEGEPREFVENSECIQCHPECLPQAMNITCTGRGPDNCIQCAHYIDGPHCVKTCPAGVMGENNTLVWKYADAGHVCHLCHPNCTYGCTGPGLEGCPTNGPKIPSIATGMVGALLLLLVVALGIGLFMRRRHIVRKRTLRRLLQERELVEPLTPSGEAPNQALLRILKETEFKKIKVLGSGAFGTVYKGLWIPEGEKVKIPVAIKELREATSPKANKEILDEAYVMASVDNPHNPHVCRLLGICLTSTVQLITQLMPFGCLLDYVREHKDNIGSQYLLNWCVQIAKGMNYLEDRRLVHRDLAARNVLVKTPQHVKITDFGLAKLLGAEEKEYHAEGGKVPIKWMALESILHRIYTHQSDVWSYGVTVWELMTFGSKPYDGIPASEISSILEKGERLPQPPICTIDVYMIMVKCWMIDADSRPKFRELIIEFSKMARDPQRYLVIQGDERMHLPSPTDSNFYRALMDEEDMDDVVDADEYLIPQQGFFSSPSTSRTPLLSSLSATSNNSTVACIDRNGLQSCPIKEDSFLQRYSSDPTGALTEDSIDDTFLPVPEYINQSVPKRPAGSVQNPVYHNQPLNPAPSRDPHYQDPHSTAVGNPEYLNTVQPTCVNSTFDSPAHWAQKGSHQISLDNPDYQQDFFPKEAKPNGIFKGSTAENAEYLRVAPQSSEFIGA

As to `C=CC(=O)Nc1cc(Nc2ncc(C(=O)OC(C)C)c(-c3cn(OC)c4ccccc34)n2)c(OC)cc1N(C)CCN(C)C.CS(=O)(=O)O` [Compound 1], in data set [1], the GI50 was found to be 15 nM. Further, the “In vitro plasma stability (Residual percentage)” value in data set [2] (120 minutes, 2 μM, 37° C.) worked out at 87.9%. In addition, in data set [2] (Sprague-Dawley (SD), pH 7.4, 37° C., read-out: In vitro plasma half-life T1/2), the half-life at 2 µM was greater than 4.82 h. Moreover, in data set [3] (Day 0, mean ± standard error, n = 6), the “Tumor volume (Day 0)” value was 122.13 ± 3.12 mm^3. Also, in data set [3] (Day 20, gavage once daily), the RTV is listed as 0.14 ± 0.08, the T/C came out at 2%, the TGI is listed as 114% and the “Tumor volume (Day 20)” value is listed as 16.97 ± 10.54 mm^3.
